Values quoted from earlier work in patent publication US20040265231A1, “Use of antioxidants to mitigate radioimmunotherapy-induced radiation toxicity” (priority 1999, published 2004).

Assays:
[1] = for radioprotective effect (frequency of micronuclei and chromosomal aberration post-radiation): murine study, gamma-ray

Compound	radioprotective effect (frequency of micronuclei and chromosomal aberration post-radiation) [1]	radioprotective effect against internalized 131I and 125I (dietary and injected)	radioprotective effect against 210Po (alpha emission) (in vivo)	radioprotection against tissue incorporated I5I (in vivo)	radioprotective effect of vitamin alone ([1]; rats and mice)
O=C1O[C@H]([C@@H](O)CO)C(O)=C1O [vitamin C, L-ascorbic acid]	exhibited radioprotective effects	exhibited radioprotective effects	not against alpha emission from ^210Po	–	–
vitamin A	–	–	not against ^210Po	effective radioprotector	–
vitamin E	exhibited radioprotective effects	–	–	–	ineffective
